Experimental data from patent EP0326329B1, “Quinazoline derivatives useful as insecticides” (Dow AgroSciences LLC, priority 1988, dated 1989).
Like-named read-outs stand apart in the source and are kept apart here.

What was measured:
Type in all cases: in vivo
[1] = test system: Erysiphe graminis tritici (powdery mildew); assay: Greenhouse Test 1, foliar spray fungicide screen (POWD MDEW), host wheat; conditions: disease control rating, 400 ppm (+++ at 100 ppm)
[2] = test system: Pyricularia oryzae (rice blast); conditions: disease control rating, foliar spray, host rice; 400 ppm (+++ at 100 ppm)
[3] = test system: Puccinia recondita tritici (leaf rust); assay: Greenhouse Test 1, foliar spray fungicide screen (LEAF RUST), host wheat; conditions: disease control rating, 400 ppm (+++ at 100 ppm)
[4] = test system: Botrytis cinerea (gray mold); assay: Greenhouse Test 1, foliar spray fungicide screen (GRAY MOLD), host grape berries; conditions: disease control rating, 400 ppm (+++ at 100 ppm)
[5] = test system: Pseudoperonospora cubensis (downy mildew); assay: Greenhouse Test 1, foliar spray fungicide screen (DOWN MDEW), host squash; conditions: disease control rating, 400 ppm (+++ at 100 ppm)
[6] = test system: Southern corn rootworm (Diabrotica undecimpuctata howardi Barber); assay: Mite/insect screen, soil treatment (CRW); conditions: Diabrotica, percent mortality, soil treatment, read-out: CRW RESULTS %; for mortality at 12 ppm: CRW rate 12.00 ppm
Procedure, shortened: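 Compounds dissolved in acetone/alcohol (50:50) with Toximul R/S emulsifiers, diluted with water. Soil (15 g, with presoaked corn seed) treated with 1 mL test solution, dried 6–12 h, then five 2–3 instar larvae added; held at 23°C. Percent mortality and phytotoxicity scored after standard exposure periods.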

[7] = test system: southern armyworm (Spodopetra eridania Cramer); assay: Mite/insect screen, sprayed squash leaves (SAW); conditions: Spodoptera eridania, percent mortality, read-out: SAW RESULTS %; for mortality at 200 ppm: spray rate 200 ppm
Procedure, shortened: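 For the armyworm test, two uninfested sprayed leaves were excised, once dry for an hour, and placed in a Petri dish holding larvae. Spray solutions came from an emulsifier-containing 50:50 acetone/alcohol formulation diluted with water and were applied to runoff.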

[8] = test system: Twospotted spider mites (Tetranychus urticae Koch); assay: Mite/insect screen, sprayed squash cotyledons (SM); conditions: Tetranychus urticae, percent mortality, read-out: SM RESULTS %; for mortality at 200 ppm: spray rate 200 ppm
Procedure, shortened: (§1)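 Water-diluted formulations of each compound (acetone/alcohol 50:50 with 23 g/L and 13 g/L emulsifier blends) are sprayed over both leaf faces to runoff. After a standard exposure period, percent kill and phytotoxicity are recorded.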

[9] = test system: melon aphids (Aphis gossypii Glover); assay: Mite/insect screen, sprayed squash cotyledons (MA); conditions: Aphis gossypii, percent mortality, read-out: MA RESULTS %; for mortality at 200 ppm: spray rate 200 ppm
Procedure, shortened: as §1

| SMILES | POWD MDEW [1] | RICE BLAST [2] | LEAF RUST [3] | GRAY MOLD [4] | DOWN MDEW [5] | mortality at 24 ppm ([6]; corn rootworm, CRW RATE 24.00 PPM) [%] | mortality at 12 ppm [6] [%] | mortality at 400 ppm ([7]; Southern armyworm, sprayed squash leaves, RATE 400 PPM) [%] | mortality at 200 ppm [7] [%] | mortality at 400 ppm ([8]; twospotted spider mites, sprayed squash cotyledons, RATE 400 PPM) [%] | mortality at 200 ppm [8] [%] | mortality at 400 ppm ([9]; melon aphids, sprayed squash cotyledons, RATE 400 PPM) [%] | mortality at 200 ppm [9] [%] | mortality at 24 ppm ([6]; CRW rate 24.00 ppm) [%] | mortality at 400 ppm ([7]; spray rate 400 ppm) [%] | mortality at 400 ppm ([8]; spray rate 400 ppm) [%] | mortality at 400 ppm ([9]; spray rate 400 ppm) [%] |
| --- | --- | --- | --- | --- | --- | --- | --- | --- | --- | --- | --- | --- | --- | --- | --- | --- | --- |
| Fc1ccccc1Oc1ccc(CCOc2ncnc3c(F)cccc23)cc1 [Example 198, 8-fluoro-4-[2-[4-(2-fluorophenoxy)phenyl]ethoxy]quinazoline] | +++ (+++ = 90-100% control at 100 ppm) | +++ (+++ = 90-100% control at 100 ppm) | +++ (+++ = 90-100% control at 100 ppm) | - (- = 0-19% control at 400 ppm) | +++ (+++ = 90-100% control at 100 ppm) | 0 | 0 | 100 | 100 | 0 | 100 | 0 | 100 |  |  |  |  |
| FC(F)(F)Oc1ccc2ncnc(NCCc3ccc(Oc4ccccc4)cc3)c2c1 [Example 44, 6-(trifluoromethoxy)-N-[2-(4-phenoxyphenyl)ethyl]-4-quinazolinamine] | - (- = 0-19% control at 400 ppm) | - (- = 0-19% control at 400 ppm) | - (- = 0-19% control at 400 ppm) | - (- = 0-19% control at 400 ppm) | + (+ = 20-89% control at 400 ppm) |  |  |  |  |  |  |  |  | 0 | 0 | 0 | 0 |
| Fc1cccc2c(OCCc3ccc4ccccc4c3)ncnc12 [Example 66, 8-fluoro-4-[2-(2-naphthyl)ethoxy]quinazoline] | +++ (+++ = 90-100% control at 100 ppm) | +++ (+++ = 90-100% control at 100 ppm) | +++ (+++ = 90-100% control at 100 ppm) | - (- = 0-19% control at 400 ppm) | +++ (+++ = 90-100% control at 100 ppm) |  |  |  |  |  |  |  |  | 0 | 0 | 0 | 0 |
| Cc1ccc(CCNc2ncnc3c(F)cccc23)cc1 [Example 77, 8-fluoro-N-[2-(4-methylphenyl)ethyl]-4-quinazolinamine] | - (- = 0-19% control at 400 ppm) | ++ (++ = 90-100% control at 400 ppm) | ++ (++ = 90-100% control at 400 ppm) | - (- = 0-19% control at 400 ppm) | - (- = 0-19% control at 400 ppm) |  | 0 |  | 0 |  | 0 |  | 0 | 0 | 0 | 0 | 0 |
| Fc1cccc2c(OCCc3ccccc3)ncnc12 [Example 95, 8-fluoro-4-(2-phenylethoxy)quinazoline] | +++ (+++ = 90-100% control at 100 ppm) | - (- = 0-19% control at 400 ppm) | +++ (+++ = 90-100% control at 100 ppm) | - (- = 0-19% control at 400 ppm) | +++ (+++ = 90-100% control at 100 ppm) |  | 0 |  | 0 |  | 0 |  | 80 | 0 | 0 | 0 | 0 |
| CC(C)c1ccc(CCOc2ncnc3ccccc23)cc1 [Example 88, 4-[2-[4-(i-propyl)phenyl]ethoxy]quinazoline] | +++ (+++ = 90-100% control at 100 ppm) | +++ (+++ = 90-100% control at 100 ppm) | +++ (+++ = 90-100% control at 100 ppm) | - (- = 0-19% control at 400 ppm) | +++ (+++ = 90-100% control at 100 ppm) |  | 0 |  | 0 |  | 100 |  | 100 | 0 | 100 | 0 | 0 |
| Oc1ccc(CCCOc2ncnc3ccccc23)cc1 [Example 121, 4-[3-(4-hydroxyphenyl)propoxy]quinazoline] | - (- = 0-19% control at 400 ppm) | - (- = 0-19% control at 400 ppm) | - (- = 0-19% control at 400 ppm) | - (- = 0-19% control at 400 ppm) | - (- = 0-19% control at 400 ppm) |  | 0 |  | 0 |  | 0 |  | 0 | 0 | 0 | 0 | 0 |
| c1ccc(Oc2ccccc2CCNc2ncnc3ccccc23)cc1 [Example 45, N-[2-(2-phenoxyphenyl)ethyl]-4-quinazolinamine] | + (+ = 20-89% control at 400 ppm) | - (- = 0-19% control at 400 ppm) | +++ (+++ = 90-100% control at 100 ppm) | - (- = 0-19% control at 400 ppm) | + (+ = 20-89% control at 400 ppm) |  |  |  |  |  |  |  |  | 0 | 0 | 0 | 0 |
| C=CC(CCc1ccccc1)Oc1ncnc2ccccc12 (stereo not drawn) [Example 148, 4-[(1-benzyl-3-buten-2-yl)oxy]quinazoline] | ++ (++ = 90-100% control at 400 ppm) | ++ (++ = 90-100% control at 400 ppm) | + (+ = 20-89% control at 400 ppm) | - (- = 0-19% control at 400 ppm) | ++ (++ = 90-100% control at 400 ppm) |  |  |  |  |  |  |  |  | 0 | 0 | 0 | 0 |
| Fc1ccc(CCOc2ncnc3c(F)cccc23)c(F)c1 [Example 159, 8-fluoro-4-[2-(2,4-difluorophenyl)ethoxy]quinazoline] | +++ (+++ = 90-100% control at 100 ppm) | +++ (+++ = 90-100% control at 100 ppm) | +++ (+++ = 90-100% control at 100 ppm) | - (- = 0-19% control at 400 ppm) | +++ (+++ = 90-100% control at 100 ppm) |  | 0 |  | 0 |  | 90 |  | 80 | 0 | 0 | 80 | 100 |
| c1ccc(Sc2cccc(CCOc3ncnc4ccccc34)c2)cc1 [Example 137, 4-[2-[3-(phenylthio)phenyl]ethoxy]quinazoline] | +++ (+++ = 90-100% control at 100 ppm) | +++ (+++ = 90-100% control at 100 ppm) | +++ (+++ = 90-100% control at 100 ppm) | - (- = 0-19% control at 400 ppm) | +++ (+++ = 90-100% control at 100 ppm) |  | 0 |  | 0 |  | 0 |  | 60 | 100 | 0 | 0 | 0 |
| Oc1ccccc1CCOc1ncnc2ccccc12 [Example 114, 4-[2-(2-hydroxyphenyl)ethoxy]quinazoline] | - (- = 0-19% control at 400 ppm) | - (- = 0-19% control at 400 ppm) | + (+ = 20-89% control at 400 ppm) | - (- = 0-19% control at 400 ppm) | + (+ = 20-89% control at 400 ppm) |  | 0 |  | 0 |  | 0 |  | 60 | 0 | 0 | 0 | 0 |
| CC(C)(C)c1ccc(CCCc2ncnc3ccccc23)cc1 [Example 127, 4-[3-[4-(1,1-dimethylethyl)phenyl]propyl]quinazoline] | +++ (+++ = 90-100% control at 100 ppm) | +++ (+++ = 90-100% control at 100 ppm) | ++ (++ = 90-100% control at 400 ppm) | - (- = 0-19% control at 400 ppm) | +++ (+++ = 90-100% control at 100 ppm) |  | 0 |  | 0 |  | 100 |  | 100 | 0 | 0 | 100 | 100 |
